Results from patent publication US10765751B2, “pH sensitive carrier and preparation method thereof, and pH sensitive drug and pH sensitive drug composition each containing the carrier, and method for treating or preventing diseases using the same” (TERUMO KABUSHIKI KAISHA, priority 2012, dated 2020).

Columns and labels:
[1] = Leaching test: measurement of a leakage (leaching rate); assay type: biochemical; conditions: hydrophobic material alone, 37° C., 90 min, mean of three ± SD
Description: The leakage (leaching rate) was determined according to the method described by K. Kono et al., Bioconjugate Chem., 2008 19 1040-1048 and evaluated using an EYPC liposome including Pyranine serving as a fluorescent substance and DPX serving as a quencher.
3000 nmol of EYPC dissolved in chloroform was measured and placed in a 10 mL eggplant flask and converted to a thin film by use of a rotary evaporator (BuCHI). 500 μL of a Pyranine solution (Pyranine: 35 mM, DPX: 50 mM, MES: 25 mM, pH 7.4) was added, followed by dispersion with use of an ultrasonic irradiator (USC-J) and passage through a polycarbonate film having a pore size of 100 nm by use of an extruder to obtain a uniform particle size. Using an MES buffer (MES: 25 mM, NaCl: 125 mM, pH 7.4) and a G100 column, an outer water layer was substituted to obtain a dispersion of EYPC liposomes including the fluorescent substance. The concentration of the choline group of the phospholipid was determined by use of the phospholipid C test Wako and was adjusted by use of an MES buffer (MES: 25 mM, NaCl: 125 mM, pH 7.4) in such a way as to obtain 1.0 mmol/L of the phospholipid. […] The DOPE-Chems and DOPE-oleic acid were, respectively, measured in an acetic acid buffer (acetic acid: 25 mM, NaCl: 125 mM).
With respect to other samples, measurement at a pH of 4.0 to 3.0 was carried out by use of an acetic acid buffer.
It will be noted that the leakage was calculated in such a way that in case where the EYPC liposome dispersion alone was used, it was taken as 0% and a value obtained in case where 30 μL of a 10-fold diluted Triton-X100 was added was taken as 100%.
More particularly, the leakage was calculated according to the following equation. In the following equation, a measured fluorescence intensity is represented by L, a fluorescence intensity of a dispersion alone of EYPC liposomes including a fluorescent substance is represented by L0, and a fluorescence intensity in case where Triton-X100 was added is represented by L100. Leakage (%)=(L−L0)/(L100−L0)×100 Fusion Test: Measurement of Fusion (Membrane Fusion)

RAW cells [2] = test: Evaluation of cytosolic delivery using a fluorescence-labeled peptide; assay type: cell-based; conditions: 14 μg of the fluorescence-labeled peptide/well, overnight, three hours post-incubation; FIG. 19, 20
Description: OVA-257-264-Rh was chosen as a model peptide. 140 μg/ml of a fluorescence-labeled peptide solution was prepared by use of PBS passed through a 0.22 μm filter and used for the preparation of a carrier. Cells used were RAW cells, and culture was carried out by use of an incubator (MCO20AIC) set at 5% CO2 and 37° C. The RAW cells were spread on a matsunami glass bottom dish on the day before the charge of the carrier and cultured in a 10% FBS-containing MEM medium.
After rinsing the cells with PBS, the medium was substituted with 1900 μL of a fresh 10% FBS-containing MEM medium, into which 100 μL of the respective samples was charged. Incubation was continued over 16 to 20 hours and the cells were rinsed at least three times with PBS. Thereafter, 2 mL of a fresh 10% FBS-containing MEM medium was added, following by three hours post-incubation. The cells were rinsed with PBS, followed by substitution with a DMEM-without-Phenol-Red medium and observation of the cells through a fluorescence microscope Axiovert 200M—soft: Axio vision 3.0—light source: Fluo Arc

RAW cells [3] = test: Cytosolic delivery of β-gal; assay type: cell-based; conditions: 16 to 20 hours incubation, three hours post-incubation; FIG. 21
Description: Using PBS passed through a 0.22 μm filter, there was prepared a 1.4 mg/mL of β-gal solution. […] On the day before charge, the RAW cells were spread on a matsunami glass bottom dish and cultured, and the cells were rinsed with PBS immediately before charge. The culture was carried out by use of an incubator (MCO 20 AIC) set at 5% CO2 and 37° C. and a 10% FBS-containing MEM medium. After substitution with 1900 μL of a fresh 10% FBS-containing MEM medium, 100 μL of the respective samples was charged, followed by 16 to 20 hours incubation. The cells were rinsed at least three times with PBS. Thereafter, 2 mL of a fresh 10% FBS-containing MEM medium was added, following by three hours post-incubation. The cells were rinsed with PBS, followed by staining the cells with use of a β-Galactosidase Staining Kit (purchased from Takara Bio Inc.), and observing the cells through a microscope (Axiovert 200M—soft: Axio vision 3.0). The staining was carried out in accordance with the recommendation of the kit.

## CC(=O)Oc1c(C)c(C)c2c(c1C)CCC(C)(CCC[C@H](C)CCC[C@H](C)CCCC(C)C)O2 (mixture of isomers) [α-Tocopherol acetate, DL-α-tocopherol acetate]
[1]; pH 5.0
  Hydrophobic material only Leakage (%): 7.0 ± 2.1%
[1]; pH 7.4
  Hydrophobic material only Leakage (%): 5.9 ± 0.2%

## Cc1c(C)c2c(c(C)c1O)CCC(C)(CCCC(C)CCCC(C)CCCC(C)C)O2 (racemic) [α-Tocopherol, DL-α-tocopherol]
[1]; pH 5.0
  Hydrophobic material only Leakage (%): 8.8 ± 0.6%
[1]; pH 7.4
  Hydrophobic material only Leakage (%): 5.4 ± 0.2%

## CCCCO [1-Butanol]
[1]; pH 5.0
  Hydrophobic material only Leakage (%): 11.1 ± 0.5%
[1]; pH 7.4
  Hydrophobic material only Leakage (%): 8.8 ± 0.1%

## CCCCCCCCCCCCO [1-Dodecanol]
[1]; pH 5.0
  Hydrophobic material only Leakage (%): 9.1 ± 0.8%
[1]; pH 7.4
  Hydrophobic material only Leakage (%): 7.9 ± 0.2%

## CCCCCCCCCCCCCCCCCCCCO [1-Eicosanol]
[1]; pH 5.0
  Hydrophobic material only Leakage (%): 8.6 ± 0.5%
[1]; pH 7.4
  Hydrophobic material only Leakage (%): 7.6 ± 0.4%

## CCCCCCCCCCCCCCCCO [1-Hexadodecanol, 1-Hexadecanol]
[1]; pH 5.0
  Hydrophobic material only Leakage (%): 11.0 ± 0.5%
[1]; pH 7.4
  Hydrophobic material only Leakage (%): 9.0 ± 0.9%

## CCCCCCCCO [1-Octanol]
[1]; pH 5.0
  Hydrophobic material only Leakage (%): 11.7 ± 0.1%
[1]; pH 7.4
  Hydrophobic material only Leakage (%): 9.0 ± 0.3%

## CCCCCCCCCCCCCCCC(=O)OC[C@H](O)[C@H]1OC(=O)C(O)=C1O [Ascorbyl palmitate]
[1]; pH 5.0
  Hydrophobic material only Leakage (%): 9.9 ± 1.0%
[1]; pH 7.4
  Hydrophobic material only Leakage (%): 1.7 ± 0.1%

## O=C(OCc1ccccc1)c1ccccc1 [Benzyl benzoate]
[1]; pH 5.0
  Hydrophobic material only Leakage (%): 9.7 ± 0.5%
[1]; pH 7.4
  Hydrophobic material only Leakage (%): 7.3 ± 2.0%

## CC(C)CCC[C@@H](C)[C@H]1CC[C@H]2[C@@H]3CC=C4C[C@@H](O)CC[C@]4(C)[C@H]3CC[C@]12C [Cholesterol, cholesterol]
[1]; pH 5.0
  Hydrophobic material only Leakage (%): 7.6 ± 0.5%
[1]; pH 7.4
  Hydrophobic material only Leakage (%): 4.8 ± 0.1%

## CCCCCCCCCCCC(=O)OCC [Ethyl laurate]
[1]; pH 5.0
  Hydrophobic material only Leakage (%): 11.9 ± 1.2%
[1]; pH 7.4
  Hydrophobic material only Leakage (%): 8.7 ± 0.9%

## CCCCCCCC/C=C\CCCCCCCC(=O)OCC [Ethyl oleate]
[1]; pH 5.0
  Hydrophobic material only Leakage (%): 11.2 ± 1.3%
[1]; pH 7.4
  Hydrophobic material only Leakage (%): 7.9 ± 0.2%

## CCCCCCCC/C=C\CCCCCCCC(=O)OCC(CO)OC(=O)CCCCCCC/C=C\CCCCCCCC (stereo not drawn) [Glycerol dioleate]
[1]; pH 5.0
  Hydrophobic material only Leakage (%): 7.4 ± 0.6%
[1]; pH 7.4
  Hydrophobic material only Leakage (%): 7.2 ± 0.5%

## CCCCCCCCCCCCCCCCCC(=O)OCC(CO)OC(=O)CCCCCCCCCCCCCCCCC (stereo not drawn) [Glycerol distearate]
[1]; pH 5.0
  Hydrophobic material only Leakage (%): 11.0 ± 1.4%
[1]; pH 7.4
  Hydrophobic material only Leakage (%): 8.0 ± 0.2%

## N[C@@H](Cc1c[nH]cn1)C(=O)O [L-Histidine, L-histidine]
[1]; pH 5.0
  Hydrophobic material only Leakage (%): 8.9 ± 0.5%
[1]; pH 7.4
  Hydrophobic material only Leakage (%): 6.7 ± 0.4%

## N[C@@H](Cc1ccccc1)C(=O)O [L-Phenylalanine]
[1]; pH 5.0
  Hydrophobic material only Leakage (%): 10.7 ± 0.4%
[1]; pH 7.4
  Hydrophobic material only Leakage (%): 7.9 ± 0.5%

## OC[C@H]1O[C@@H](O[C@H]2[C@H](O)[C@@H](O)C(O)O[C@@H]2CO)[C@H](O)[C@@H](O)[C@H]1O (stereo partly drawn) [Lactose]
[1]; pH 5.0
  Hydrophobic material only Leakage (%): 8.9 ± 0.2%
[1]; pH 7.4
  Hydrophobic material only Leakage (%): 6.1 ± 0.2%

## CCCCCCCCCCCC(=O)O [Lauric acid]
[1]; pH 5.0
  Hydrophobic material only Leakage (%): 14.2 ± 0.4%
[1]; pH 7.4
  Hydrophobic material only Leakage (%): 6.2 ± 0.4%

## CCCCCCCCCC(=O)OCC(O)CO (stereo not drawn) [Monocaprin, Glycerol monocaprate]
[1]; pH 5.0
  Hydrophobic material only Leakage (%): 8.1 ± 0.2%
[1]; pH 7.4
  Hydrophobic material only Leakage (%): 4.0 ± 2.6%

## CCCCCCCC(=O)OCC(O)CO (stereo not drawn) [Monocaprylin, Glycerol monocaprylate]
[1]; pH 5.0
  Hydrophobic material only Leakage (%): 8.5 ± 0.4%
[1]; pH 7.4
  Hydrophobic material only Leakage (%): 4.9 ± 1.8%

## CCCCCCCCCCCC(=O)OCC(O)CO (stereo not drawn) [Monolaurin, Glycerol monolaurate]
[1]; pH 5.0
  Hydrophobic material only Leakage (%): 5.6 ± 0.4%
[1]; pH 7.4
  Hydrophobic material only Leakage (%): 3.6 ± 0.3%

## CCCCCCCCCCCCCC(=O)OCC(O)CO (stereo not drawn) [Monomyristin, Glycerol monomyristate]
[1]; pH 5.0
  Hydrophobic material only Leakage (%): 5.4 ± 0.1%
[1]; pH 7.4
  Hydrophobic material only Leakage (%): 3.8 ± 0.3%

## CCCCCCCC/C=C\CCCCCCCC(=O)OCC(O)CO (stereo not drawn) [Monoolein, Glycerol monooleate]
[1]; pH 5.0
  Hydrophobic material only Leakage (%): 8.3 ± 0.4%
[1]; pH 7.4
  Hydrophobic material only Leakage (%): 6.3 ± 0.4%

## CCCCCCCCCCCCCCCC(=O)OCC(O)CO (stereo not drawn) [Monopalmitin, Glycerol monopalmitate]
[1]; pH 5.0
  Hydrophobic material only Leakage (%): 8.1 ± 0.7%
[1]; pH 7.4
  Hydrophobic material only Leakage (%): 7.8 ± 2.5%

## CCCCCCCCCCCCCCCCCC(=O)OCC(O)CO (stereo not drawn) [Monostearin, Glycerol monostearate]
[1]; pH 5.0
  Hydrophobic material only Leakage (%): 9.6 ± 0.6%
[1]; pH 7.4
  Hydrophobic material only Leakage (%): 7.9 ± 1.0%

## CCCCCCCC/C=C\CCCCCCCC(=O)[O-].[Na+] [Oleic acid, Sodium oleate]
[1]; pH 5.0
  Hydrophobic material only Leakage (%): 76.0 ± 2.3%
[1]; pH 7.4
  Hydrophobic material only Leakage (%): 2.2 ± 0.1%

## CCCOC(=O)c1ccc(O)cc1 [Propyl paraoxybenzoate, propyl paraoxybenzoate]
[1]; pH 5.0
  Hydrophobic material only Leakage (%): 7.9 ± 0.1%
[1]; pH 7.4
  Hydrophobic material only Leakage (%): 5.4 ± 0.2%

## CC(C)CCCC(C)CCCC(C)CCCCC(C)CCCC(C)CCCC(C)C (stereo not drawn) [Squalane, squalane]
[1]; pH 5.0
  Hydrophobic material only Leakage (%): 9.4 ± 0.5%
[1]; pH 7.4
  Hydrophobic material only Leakage (%): 7.8 ± 0.6%

## CC(C)=CCC/C(C)=C/CC/C(C)=C/CC/C=C(\C)CC/C=C(\C)CCC=C(C)C [Squalene]
[1]; pH 5.0
  Hydrophobic material only Leakage (%): 9.0 ± 0.5%
[1]; pH 7.4
  Hydrophobic material only Leakage (%): 5.4 ± 0.4%

## CCCCCC(=O)OCC(COC(=O)CCCCC)OC(=O)CCCCC [Tricaproin, tricaproin]
[1]; pH 5.0
  Hydrophobic material only Leakage (%): 8.4 ± 0.9%
[1]; pH 7.4
  Hydrophobic material only Leakage (%): 6.9 ± 0.9%

## CCCCCCCC(=O)OCC(COC(=O)CCCCCCC)OC(=O)CCCCCCC [Tricaprylin, tricaprylin]
[1]; pH 5.0
  Hydrophobic material only Leakage (%): 9.0 ± 1.1%
[1]; pH 7.4
  Hydrophobic material only Leakage (%): 6.8 ± 0.9%

## Cyclodextrin
[1]; pH 5.0
  Hydrophobic material only Leakage (%): 9.0 ± 0.7%
[1]; pH 7.4
  Hydrophobic material only Leakage (%): 6.3 ± 0.6%

## fluorescence-labeled peptide alone: Fluorescence-labeled peptide: OVA257-264-Rh
RAW cells [2]
  localisation of fluorescence-labeled peptide in cells (cytosolic delivery): remained in the endosome

## sorbitan monolaurate [SPAN 20]
[1]; pH 5.0
  Hydrophobic material only Leakage (%): 10.1 ± 0.4%
[1]; pH 7.4
  Hydrophobic material only Leakage (%): 5.7 ± 0.7%

## sorbitan monooleate [SPAN 80]
[1]; pH 5.0
  Hydrophobic material only Leakage (%): 10.0 ± 0.7%
[1]; pH 7.4
  Hydrophobic material only Leakage (%): 5.1 ± 0.5%

## sorbitan palmitic acid ester [SPAN 40]
[1]; pH 5.0
  Hydrophobic material only Leakage (%): 20.8 ± 1.4%
[1]; pH 7.4
  Hydrophobic material only Leakage (%): 14.9 ± 0.8%

## sorbitan stearic acid ester [SPAN 60]
[1]; pH 5.0
  Hydrophobic material only Leakage (%): 17.5 ± 0.4%
[1]; pH 7.4
  Hydrophobic material only Leakage (%): 7.9 ± 0.3%

## sorbitan trioleic acid ester [SPAN 85]
[1]; pH 5.0
  Hydrophobic material only Leakage (%): 17.7 ± 1.2%
[1]; pH 7.4
  Hydrophobic material only Leakage (%): 5.2 ± 0.4%

## sorbitan tristearate [SPAN 65]
[1]; pH 5.0
  Hydrophobic material only Leakage (%): 13.0 ± 0.3%
[1]; pH 7.4
  Hydrophobic material only Leakage (%): 4.2 ± 0.4%

## β-D-galactosidase [β-gal alone]
RAW cells [3]
  staining of cells by β-gal enzymatic activity (cytosolic delivery): not stained
